Data on 54 molecules can be found in patent US20090270371A1, “QUINOLINE DERIVATIVES USEFUL IN THE TREATMENT OF MGLUR5 RECEPTOR-MEDIATED DISORDERS” (priority 2005, published 2009).

T1 sequence (P31424 21-1203): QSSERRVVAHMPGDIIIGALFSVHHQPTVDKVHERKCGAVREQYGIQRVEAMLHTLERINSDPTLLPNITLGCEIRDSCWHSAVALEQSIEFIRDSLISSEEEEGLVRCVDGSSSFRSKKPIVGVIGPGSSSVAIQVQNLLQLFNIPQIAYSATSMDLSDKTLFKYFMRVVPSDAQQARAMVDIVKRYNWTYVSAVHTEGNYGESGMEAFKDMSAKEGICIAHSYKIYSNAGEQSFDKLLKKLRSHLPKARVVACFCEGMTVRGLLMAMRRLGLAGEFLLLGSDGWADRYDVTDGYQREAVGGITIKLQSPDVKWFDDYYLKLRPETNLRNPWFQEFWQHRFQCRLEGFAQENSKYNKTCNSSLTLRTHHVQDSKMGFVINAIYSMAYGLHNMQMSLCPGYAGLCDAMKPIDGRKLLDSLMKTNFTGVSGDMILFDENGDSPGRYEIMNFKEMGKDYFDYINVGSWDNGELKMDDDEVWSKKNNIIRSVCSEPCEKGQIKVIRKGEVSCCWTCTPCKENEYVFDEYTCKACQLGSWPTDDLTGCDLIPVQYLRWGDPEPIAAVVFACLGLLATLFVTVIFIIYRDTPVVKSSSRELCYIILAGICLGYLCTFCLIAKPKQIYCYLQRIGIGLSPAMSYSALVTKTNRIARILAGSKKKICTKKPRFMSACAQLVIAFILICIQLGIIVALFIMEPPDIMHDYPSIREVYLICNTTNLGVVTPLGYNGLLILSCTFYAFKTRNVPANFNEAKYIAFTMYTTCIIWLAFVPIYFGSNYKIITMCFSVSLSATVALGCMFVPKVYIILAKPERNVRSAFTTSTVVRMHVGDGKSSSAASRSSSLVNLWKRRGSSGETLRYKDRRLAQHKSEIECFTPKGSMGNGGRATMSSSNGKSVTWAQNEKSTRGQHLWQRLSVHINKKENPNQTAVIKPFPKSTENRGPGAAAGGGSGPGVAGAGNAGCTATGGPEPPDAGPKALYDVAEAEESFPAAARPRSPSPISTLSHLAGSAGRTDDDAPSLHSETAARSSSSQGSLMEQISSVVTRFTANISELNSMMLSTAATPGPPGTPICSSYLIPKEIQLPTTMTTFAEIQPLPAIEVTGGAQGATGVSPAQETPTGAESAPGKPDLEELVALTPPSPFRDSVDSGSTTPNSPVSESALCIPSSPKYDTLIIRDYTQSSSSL

The assay concerns the target T1, rat mGluR5 receptors (Rattus norvegicus, UniProt P31424).
T1 construct: rat cerebro-cortical membrane preparation was used; from tissue; host or cells: rat cerebral cortex membranes
The experiment in a line: mGluR5 receptor binding test, rat cerebro-cortical membrane preparation, [3H]-M-MPEP. The conditions noted are these: affinity for rat mGluR5 receptors; [3H]-M-MPEP (2 nM) radioligand. The procedure: The mGluR5 receptor binding was determined according to the modified method of Gasparini et. al. (Bioorg. Med. Chem. Lett., 2000, 12, 407). Based on the high homology between the human and rat mGluR5 receptors, rat cerebro-cortical membrane preparation was used to determine the binding characteristics of the reference compounds and novel compounds to the rat mGluR5. The A18 cell line expressing hmGluR5a (purchased from Euroscreen) was used to determine binding characteristics of the chemical compounds to the human mGluR5a receptor. [^3H]-M-MPEP (2 nM) was used as radioligand. The nonspecific binding was determined in the presence of 10 μM M-MPEP.
Take `Cc1ccc(S(=O)(=O)c2cnc3cc(Cl)ccc3c2N2CCC(C)CC2)cc1Cl` [Compound 205]: the inhibition constant Ki was below 0.2 µM. Under `COc1cccc(S(=O)(=O)c2cnc3ccc(C)cc3c2N2CCOCC2)c1` [Compound 260] stands 0.2 to 0.5 µM.

Regarding `CCN1CCN(c2c(S(=O)(=O)c3ccc(Cl)cc3)cnc3ccc(C)cc23)CC1` [Compound 62], the Ki was above 0.5 µM. Under `Cc1ccc(S(=O)(=O)c2cnc3ccccc3c2NCc2ccccc2)cc1` [Compound 77] stands below 0.2 µM; under `O=S(=O)(c1cc(Cl)cc(Cl)c1)c1cnc2c(F)cccc2c1N1CCOCC1` [Compound 335], 0.2 to 0.5 µM; under `COc1cccc(S(=O)(=O)c2cnc3cc(F)ccc3c2N2CCC(C)CC2)c1` [Compound 175], below 0.2 µM.

With `Cc1ccc2ncc(S(=O)(=O)c3cc(Cl)cc(Cl)c3)c(N3CCC(C)CC3)c2c1` [Compound 153], the Ki is 0.2 to 0.5 µM. With `CCc1ccc2ncc(S(=O)(=O)c3ccc(OC)cc3)c(N3CCN(C)CC3)c2c1` [Compound 127] the figure was above 0.5 µM. Under `COc1ccc(S(=O)(=O)c2cnc3ccc(C)cc3c2N2CCOCC2)cc1` [Compound 258] stands above 0.5 µM. With `CC1CCN(c2c(S(=O)(=O)c3ccc(Cl)c(Cl)c3)cnc3c(F)cccc23)CC1` [Compound 236] the figure was below 0.2 µM; with `COc1ccc2ncc(S(=O)(=O)c3ccc(OC)c(Cl)c3)c(N3CCC(C)CC3)c2c1` [Compound 245], above 0.5 µM. Take `CCOC(=O)C1CCN(c2c(S(=O)(=O)c3ccc(C)cc3)cnc3ccc(CC)cc23)CC1` [Compound 52]: the Ki was above 0.5 µM. With `CC1CCN(c2c(S(=O)(=O)c3ccc(F)cc3)cnc3ccc(F)cc23)CC1` [Compound 141] the figure was below 0.2 µM; with `Cc1ccc2ncc(S(=O)(=O)c3ccc(C#N)cc3)c(N3CCOCC3)c2c1` [Compound 265], above 0.5 µM. `COc1ccc2ncc(S(=O)(=O)c3ccc(OC)c(OC)c3)c(N3CCC(C)CC3)c2c1` [Compound 242] gave a Ki above 0.5 µM. Consider `O=S(=O)(c1ccc(F)c(Cl)c1)c1cnc2ccc(F)cc2c1N1CCOCC1` [Compound 290], for which the Ki was 0.2 to 0.5 µM. Under `CC1CCN(c2c(S(=O)(=O)c3cccc(Cl)c3)cnc3ccc(F)cc23)CC1` [Compound 148] stands below 0.2 µM; under `CC1CCN(c2c(S(=O)(=O)c3ccc(C#N)cc3)cnc3ccc(F)cc23)CC1` [Compound 150], 0.2 to 0.5 µM; under `O=S(=O)(c1ccc(F)cc1)c1cnc2cc(Cl)ccc2c1N1CCC(CO)CC1` [Compound 350], 0.2 to 0.5 µM. With `Cc1ccc(S(=O)(=O)c2cnc3cc(F)ccc3c2N2CCOCC2)cc1Cl` [Compound 312] the figure was below 0.2 µM; with `Cc1ccc(S(=O)(=O)c2cnc3cc(F)ccc3c2N2CCOCC2)cc1C` [Compound 314], 0.2 to 0.5 µM. Turning to `N#Cc1ccc2ncc(S(=O)(=O)c3ccc(F)cc3)c(N3CCOCC3)c2c1` [Compound 346], the Ki was in the range of 0.2 to 0.5 µM. With `CCOC(=O)C1CCCN(c2c(S(=O)(=O)c3ccccc3)cnc3ccc(CC)cc23)C1` (stereo not drawn) [Compound 57] the figure was above 0.5 µM; with `CCN(CC)c1c(S(=O)(=O)c2ccc(Cl)cc2)cnc2ccc(F)cc12` [Compound 133], above 0.5 µM.

For `COc1ccc(S(=O)(=O)c2cnc3cc(Cl)ccc3c2N2CCOCC2)cc1` [Compound 322], the Ki is above 0.5 µM. Under `COc1ccc(S(=O)(=O)c2cnc3c(F)cccc3c2N2CCOCC2)cc1` [Compound 338] stands above 0.5 µM. Under `CC1CCN(c2c(S(=O)(=O)c3cc(F)cc(F)c3)cnc3c(F)cccc23)CC1` [Compound 227] stands above 0.5 µM; under `CCOc1ccc2ncc(S(=O)(=O)c3ccccc3)c(N3CCCC3)c2c1` [Compound 36], above 0.5 µM. `Cc1ccc2ncc(S(=O)(=O)c3cccc(C#N)c3)c(N3CCOCC3)c2c1` [Compound 256] returned a Ki of 0.2 to 0.5 µM. For `COc1ccc2ncc(S(=O)(=O)c3cccc(Cl)c3)c(N3CCOCC3)c2c1` [Compound 274], the inhibition constant (Ki) is above 0.5 µM. `CC1CCN(c2c(S(=O)(=O)c3ccc(Cl)cc3)cnc3c(F)cccc23)CC1` [Compound 231] had a Ki below 0.2 µM. Under `CCOC(=O)N1CCN(c2c(S(=O)(=O)c3ccc(C)cc3)cnc3ccc(C)cc23)CC1` [Compound 132] stands above 0.5 µM. With `Cc1ccc(S(=O)(=O)c2cnc3ccc(Cl)cc3c2N2CCC(C)CC2)cc1Cl` [Compound 219] the figure was 0.2 to 0.5 µM; with `COc1cccc(S(=O)(=O)c2cnc3cc(Cl)ccc3c2N2CCC(C)CC2)c1` [Compound 198], below 0.2 µM; with `CC1CCN(c2c(S(=O)(=O)c3ccccc3)cnc3cc(F)ccc23)CC1` [Compound 173], below 0.2 µM. Under `COc1ccc(N2CCN(c3c(S(=O)(=O)c4ccc(Cl)cc4)cnc4ccc(C)cc34)CC2)cc1` [Compound 75] stands above 0.5 µM; under `COc1ccc2ncc(S(=O)(=O)c3cc(F)cc(F)c3)c(N3CCC(C)CC3)c2c1` [Compound 240], above 0.5 µM; under `CC1CCN(c2c(S(=O)(=O)c3ccc(F)cc3)cnc3cc(Cl)ccc23)CC1` [Compound 192], below 0.2 µM. `CC1CCN(c2c(S(=O)(=O)c3ccccc3)cnc3cc4c(cc23)OCCO4)CC1` [Compound 48] registered a Ki below 0.2 µM.

`Cc1ccc2ncc(S(=O)(=O)c3ccc(F)c(Cl)c3)c(N3CCC(C)CC3)c2c1` [Compound 169] registered an inhibition constant Ki below 0.2 µM. Under `Cc1ccc(S(=O)(=O)c2cnc3ccc(C)cc3c2N2CCN(c3ccccc3F)CC2)cc1` [Compound 73] stands above 0.5 µM. With `COc1ccc(S(=O)(=O)c2cnc3ccc(F)cc3c2N2CCOCC2)cc1Cl` [Compound 284] the figure was above 0.5 µM. Molecule `Cc1ccc2ncc(S(=O)(=O)c3cccc(C#N)c3)c(N3CCC(C)CC3)c2c1` [Compound 155] had a Ki above 0.5 µM.

The molecule `Cc1ccc2ncc(S(=O)(=O)c3ccc(Cl)cc3)c(N3CCCCC3)c2c1` [Compound 93] had a Ki above 0.5 µM. In turn, `Cc1ccc2ncc(S(=O)(=O)c3ccc(F)cc3)c(N3CCOCC3)c2c1` [Compound 257] yielded a Ki above 0.5 µM.

Molecule `CCc1ccc2ncc(S(=O)(=O)c3ccccc3)c(N3CCN(Cc4ccccc4)CC3)c2c1` [Compound 66] showed a Ki above 0.5 µM. Under `CC1CCN(c2c(S(=O)(=O)c3cc(F)cc(F)c3)cnc3cc(Cl)ccc23)CC1` [Compound 189] stands below 0.2 µM; under `COc1ccccc1N1CCN(c2c(S(=O)(=O)c3ccc(C)cc3)cnc3ccccc23)CC1` [Compound 74], above 0.5 µM; under `Cc1ccc(S(=O)(=O)c2cnc3ccc(F)cc3c2N2CCN(c3ccccc3)CC2)cc1` [Compound 67], above 0.5 µM. Molecule `COc1ccc(S(=O)(=O)c2cnc3ccc(C)cc3c2N2CCOCC2)cc1Cl` [Compound 261] yielded a Ki of 0.2 to 0.5 µM.

For the molecule `Cc1ccc(S(=O)(=O)c2cnc3ccc(Cl)cc3c2N2CCOCC2)cc1Cl` [Compound 300], the Ki lay in the range of 0.2 to 0.5 µM. Under `O=S(=O)(c1cc(F)cc(F)c1)c1cnc2cc(F)ccc2c1N1CCOCC1` [Compound 310] stands above 0.5 µM; under `CC1CCN(c2c(S(=O)(=O)c3ccc(F)c(F)c3)cnc3ccc(F)cc23)CC1` [Compound 152], below 0.2 µM; under `Cc1ccc(S(=O)(=O)c2cnc3ccc(Cl)cc3c2N2CCC(C)CC2)cc1C` [Compound 220], below 0.2 µM.
